pIC50: −log10 of the molar value. Where two headings read alike, the source gives them in different places.
What was measured:
[1] = system: Cell strain A431; assay: Cell cycle inhibiting activity, flow cytometer and microscopic observation; format: cell-based, human
Procedure: Cell strain A431 derived from […] was used. EMEM culture medium containing 10% bovine fetus serum and 1% MEM nonessential amino acid solution (SIGMA M2025) was used to incubate A431 cells at 37° C. in an incubator saturated with 5% carbon dioxide gas and water vapor. The refined specimen of racemic phenylahistin obtained in EXAMPLE 1 was added to the cells in the log-growth phase and progression of the cell cycle was analyzed by flow cytometer and microscopic observation. The results, shown in Table 1, indicate that this phenylahistin was useful as a cell cycle inhibitor.

[2] = system: P388 leukemia cells; assay: In vivo antitumor activity against P388 leukemia; set-up: species or system mice
Procedure: Male CDF1 mice (4 weeks old) were inoculated intraperitoneally with P388 leukemia cells (1×10^6 cells/body) on day 0. […] Each group consisted of six mice. A T/C (%) was calculated according to the following formula:
T/C (%)=[(mean number of survival days of treated group)/(mean number of survival days of control group)]×100

[3] = system: P388 murine leukemia cells; assay: Cytotoxic effects of the phenylahistin enantiomers (Example 8); format: cell-based; conditions: Mus musculus, (−) 92.2% e.e., (+) 97.8% e.e.
Description: The cytotoxic effects of the enantiomers of phenylahistin on P388 murine leukemia cells were examined. […] Judging from the content of (−)-phenylahistin in (+)-phenylahistin, (+)-phenylahistin was considered to have relatively low cytotoxicity to P388 cells.

[4] = system: phosphocellulose-purified tubulin; assay: Polymerization of purified tubulin (turbidity); format: biochemical, bovine
Procedure: Microtubule protein was prepared from bovine brain tissue by two cycles of assembly and disassembly according to the method of Tiwari, S. C. et al. Anal. Biochem, (1993), 215, 96-103. Tubulin was purified from microtubule protein by phosphocellulose chromatography see Algaier, J. et al. Biochim. Biophys. Acta, (1988), 954, 235-43, and tubulin purity was evaluated by polyacrylamide gel electrophoresis, as in Laemmli, U.K., Nature, (1970), […], 680-85. […] Protein concentrations were determined using the Coomassie® Protein Assay Reagent from Pierce (Rockford, Ill.).
Polymerization of microtubule protein was monitored by an increase in turbidity at 37° C. in microtubule assembly buffer containing 100 mM MES, 0.5 mM MgCl2, 1 mM EGTA and 1 mM GTP. See Johnson, K. A. et al., J. Mol. Biol., (1977), 117, 1-31. Polymerization of purified tubulin was measured using the same method except the microtubule assembly buffer contained 4 M glycerol. See Lee, J. C. et al., Biochemistry, (1975), 14, 5183-87. Microtubule protein and tubulin polymerization was initiated by a temperature shift from 0° C. to 37° C. and turbidity was measured on a DU-20 thermocontrolled spectrophotometer from Beckman (Fullerton, Calif.) at 360 nm. Drugs were dissolved in dimethyl sulfoxide (DMSO), which was used in all experiments at a final concentration of 2% (v/v).

[5] = system: A549 cells (human lung carcinoma); assay: A549 proliferation, Alamar Blue assay; format: cell-based
Procedure: Exponentially growing A549 cells were seeded into 96-well tissue culture plates (2×10^3 cells/100 μl/well) and cultured for 16 hours. (−)-PLH or CLC was then added to each well at various concentrations, and the cells were cultured for an additional 48 hours. Live cells were counted using Alamar Blue™ from BioSource International (Camarillo, Calif.) as described in Ahmed, S. A., J. Immunol. Methods, (1994), 170, 211-24.

[6] = system: P388 cells; assay: Cell cycle progression of P388, flow cytometer; format: cell-based, murine; conditions: 1×10^−6 M, 8-hour incubation
Procedure: The effect of phenylahistin on the cell cycle progression of P388 cells was also investigated using a flow cytometer, as described in Krishan, A., J. Cell Biol. (1975) 66, 188-193. P388 cells in the log growth phase were seeded into flasks and cultured for 14 hours, and then various concentrations of phenylahistin were added to each flask. After an 8-hour incubation, the cells were harvested and fixed with 50% MeOH at −20° C. overnight. The cells were washed with 30% MeOH and then with 10 mM PBS, and treated with 50 :g/ml propidium iodide at 4° C. for 2 hours. DNA histograms were obtained using a flow cytometer (Cyto ACE-300:JASCO).

[7] = system: Microtubule protein from bovine brain; assay: Microtubule protein polymerization assay (turbidity); format: biochemical
[8] = system: P388 cells; assay: P388 proliferation, Alamar Blue assay; format: cell-based, murine; conditions: for pIC50: Mus musculus
[9] = 4.2 mg/kg (1 mg/kg calculated (−)-PLH) i.p. daily days 1 to 12
[10] = 12.5 mg/kg (3 mg/kg calculated (−)-PLH) i.p. daily days 1 to 12
[11] = 42 mg/kg (10 mg/kg calculated (−)-PLH) i.p. daily days 1 to 12
[12] = 125 mg/kg (30 mg/kg calculated (−)-PLH) i.p. daily days 1 to 12

SMILES: C=CC(C)(C)c1[nH]cnc1/C=C1\NC(=O)[C@H](Cc2ccccc2)NC1=O (racemic) [PLH, phenylahistin]
- Inhibiting effect (cell cycle) ([1]; Concentration 0.5 μg/ml): Absent (Absent: The cell cycle stopped at the G2/M phase in less than 10% of the cells.)
- Inhibiting effect (cell cycle) ([1]; Concentration 1.0 μg/ml): Absent (Absent: The cell cycle stopped at the G2/M phase in less than 10% of the cells.)
- Inhibiting effect (cell cycle) ([1]; Concentration 2.0 μg/ml): Slight (Slight: The cell cycle stopped at the G2/M phase in not less than 10% and less than 50% of the cells.)
- Inhibiting effect (cell cycle) ([1]; Concentration 4.0 μg/ml): Slight (Slight: The cell cycle stopped at the G2/M phase in not less than 10% and less than 50% of the cells.)
- Inhibiting effect (cell cycle) ([1]; Concentration 8.0 μg/ml): Present (Present: The cell cycle stopped at the G2/M phase in not less that 50% of the cells.)
- Inhibiting effect (cell cycle) ([1]; Concentration 32.0 μg/ml): Present (Present: The cell cycle stopped at the G2/M phase in not less that 50% of the cells.)
- Mean Body weight on day 12 [2, 9]: 25.3 ± 0.4 g
- Mean Number of Survival days [2, 9]: 14.6 ± 0.6 days
- T/C (%) [2, 9]: 117%
- Mean Body weight on day 12 [2, 10]: 24.1 ± 0.6 g
- Mean Number of Survival days [2, 10]: 14.6 ± 0.5 days
- T/C (%) [2, 10]: 117%
- Mean Body weight on day 12 [2, 11]: 23.0 ± 0.5 g
- Mean Number of Survival days [2, 11]: 16.1 ± 0.8 days
- T/C (%) [2, 11]: 129%
- Mean Body weight on day 12 [2, 12]: 22.3 ± 0.3 g
- Mean Number of Survival days [2, 12]: 18.9 ± 0.9 days
- T/C (%) [2, 12]: 151%
- increases in body weight seen in the control group ([2]; daily administrations of PLH 41.5 and 124 mg/kg): suppressed
- T/C ([2]; daily dosage of 41.5 mg/kg for 12 days): 129%
- T/C ([2]; daily dosage of 124 (30) mg/kg for 12 days): 151%
- tremorgenic side effects ([2]; highest dose (124 mg/kg/day)): did not induce such side effects
- T/C ([2]; single administration, 415 mg/kg PLH [(−)-PLH 100 mg/kg]): 115%

SMILES: C=CC(C)(C)c1[nH]cnc1/C=C1\NC(=O)[C@H](Cc2ccccc2)NC1=O [(−)-phenylahistin]
- pIC50 [3]: 6.46
- inhibition of tubulin polymerization compared with CLC [4]: as effective as CLC
- pIC50 ([5]; Homo sapiens, A549, read-out: 50% inhibitory concentration (IC50), proliferation of A549 cells, 48 hours): 6.52
- fold less potent than CLC, A549 proliferation ([5]; versus CLC under the assay conditions): 5 fold
- cell cycle inhibitory activity (G2/M) [6]: exhibited cell cycle inhibitory activity
- cell cycle inhibitory activity (G2/M) ([6]; listed as (−)-PLH): completely inhibits the cell cycle progression
- polymerization of microtubule protein ([7]; 80 μM): completely inhibited
- turbidity increase at high concentration ([7]; concentrations up to 200 μM): did not increase the turbidity
- pIC50 ([7]; microtubule protein 1.5 mg/ml (Table 4), read-out: IC50 for Microtubule Protein Polymerization): 4.60
- times more active than (+)-phenylahistin in anti-proliferative assays [8]: 50 times
- pIC50 ([8]; P388, read-out: IC50 P388 proliferation): 6.68
- pIC50 ([8]; P388, read-out: IC50 for P388 Proliferation): 6.68
- times less active than colchicine, anti-proliferative activity ([8]; P388): about 10 times

Source: patent US20040102454A1, “Phenylahistin and the phenylahistin analogs, a new class of anti-tumor compounds” (priority 1998, published 2004)
